# According to patent publication US10611750B2, “Tetrahydroquinoline compositions as bet bromodomain inhibitors” (FORMA Therapeutics, Inc., priority 2013, dated 2020):
# Where two headings read alike, the source gives them in different places.
# What was measured:
# [1] = target: T1, BRD4 Bromodomain 1 (BRD4 BD1) (Homo sapiens, UniProt O60885); test: AlphaScreen binding assay, BRD4 BD1; conditions: His-tagged BRD4 BD1 50 nM, biotinylated H4 (1-21) K5/8/12/16 tetra-acetylated peptide 50 nM, compounds listed under IC50 range headings
# T1 construct: 44-168 and BRD4 BD2
# Method in brief: (§1)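 Compound dilution series were mixed with His-tagged BRD4 bromodomain and biotinylated tetra-acetylated H4 (1-21) peptide at pH 7.3 (BD1 and peptide at 50 nM, BD2 and peptide at 100 nM). Donor and acceptor beads were then added, and plates were equilibrated at least 1 h before reading. IC50 values were fitted with a four-parameter logistic model.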
# [2] = target: T2, BRD4 Bromodomain 2 (BRD4 BD2) (Homo sapiens, UniProt O60885); test: AlphaScreen binding assay, BRD4 BD2; conditions: His-tagged BRD4 BD2 100 nM, biotinylated H4 (1-21) K5/8/12/16 tetra-acetylated peptide 100 nM, compounds listed under IC50 range headings
# T2 construct: 333-460 were cloned, expressed, and purified to homogeneity
# Method in brief: as §1
# [3] = tested on: acute myelocytic leukemia (AML) cell line MV4-11; test: Oncology cell growth assay (3-day proliferation, CellTiter-Glo); assay type: cell-based; conditions: Homo sapiens, MV4-11 cells, 3000 cells/well, compounds listed under IC50 range headings, read-out: MV411 IC50 (gIC50, inhibition of proliferation)
# Method in brief: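 72 h, 37° C, 5% CO2; MV4-11, 3000 cells/well, RPMI 1640 + 10% FBS. Compound final 10, 3.3, 1.1, 0.37, 0.12, 0.041, 0.013, 0.0045 μM. Readout CellTiter-Glo luminescence; gIC50 by 4-parameter logistic fit, normalised to DMSO and no-cell background.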
Compound,IC50 [1],IC50 [2],"IC50 ([3]; MV4-11, 72 h)",IC50 ([3]; 72 hours)
"CC(=O)N1c2ccc(-c3cnn(C4CC4)c3)c(Oc3ncc4ccccc4n3)c2CC[C@@H]1C [I-77, (S)-1-(6-(1-cyclopropyl-1H-pyrazol-4-yl)-2-methyl-5-(quinazolin-2-yloxy)-3,4-dihydroquinolin-1(2H)-yl)ethanone]",0.1 to 1 µM,< 0.05 µM,< 0.5 µM,
"CC(=O)N1c2ccc(-c3cnn(C4CC4)c3)c(Oc3nc4ccccc4o3)c2CC[C@@H]1C [I-78, (S)-1-(5-(benzo[d]oxazol-2-yloxy)-6-(1-cyclopropyl-1H-pyrazol-4-yl)-2-methyl-3,4-dihydroquinolin-1(2H)-yl)ethanone]",0.1 to 1 µM,0.05 to 0.5 µM,< 0.5 µM,
"CC(=O)N1c2ccc(-c3cnn(CCO)c3)c(Oc3ncccn3)c2CC[C@@H]1C [I-80, (S)-1-(6-(1-(2-hydroxyethyl)-1H-pyrazol-4-yl)-2-methyl-5-(pyrimidin-2-yloxy)-3,4-dihydroquinolin-1 (2H)-yl)ethanone]",0.1 to 1 µM,< 0.05 µM,< 0.5 µM,
"CC(=O)N1c2ccc(-c3cnn(C4CC4)c3)c(Oc3ncccc3C(N)=O)c2CC[C@@H]1C [I-81, (S)-2-(1-acetyl-6-(1-cyclopropyl-1H-pyrazol-4-yl)-2-methyl-1,2,3,4-tetrahydroquinolin-5-yloxy)nicotinamide]",0.1 to 1 µM,0.05 to 0.5 µM,< 0.5 µM,
"CC(=O)N1c2ccc(-c3cnn(C4CC4)c3)c(Oc3ncc4cn[nH]c4n3)c2CC[C@@H]1C [I-82, (S)-1-(5-(1H-pyrazolo[3,4-d]pyrimidin-6-yloxy)-6-(1-cyclopropyl-1H-pyrazol-4-yl)-2-methyl-3,4-dihydroquinolin-1(2H)-yl)ethanone]",1 to 10 µM,0.05 to 0.5 µM,0.5 to 1 µM,
"CC(=O)N1c2ccc(-c3cnn(C4CC4)c3)c(Oc3nccs3)c2CC[C@@H]1C [I-83, (S)-1-(6-(1-cyclopropyl-1H-pyrazol-4-yl)-2-methyl-5-(thiazol-2-yloxy)-3,4-dihydroquinolin-1(2H)-yl)ethanone]",1 to 10 µM,< 0.05 µM,< 0.5 µM,
"CC(=O)N1c2ccc(-c3cnn(C4CC4)c3)c(Oc3ncccc3C#N)c2CC[C@@H]1C [I-84, (S)-2-(1-acetyl-6-(1-cyclopropyl-1H-pyrazol-4-yl)-2-methyl-1,2,3,4-tetrahydroquinolin-5-yloxy)nicotinonitrile]",0.1 to 1 µM,< 0.05 µM,< 0.5 µM,
"CC(=O)N1c2ccc(-c3cnn(C4CC4)c3)c(Oc3ncccc3C(F)(F)F)c2CC[C@@H]1C [I-86, (S)-1-(6-(1-cyclopropyl-1H-pyrazol-4-yl)-2-methyl-5-(3-(trifluoromethyl)pyridin-2-yloxy)-3,4-dihydroquinolin-1 (2H)-yl)ethanone]",0.1 to 1 µM,< 0.05 µM,< 0.5 µM,
"CC(=O)N1c2ccc(-c3cnn(C4CC4)c3)c(Oc3cnccn3)c2CC[C@@H]1C [I-88, (S)-1-(6-(1-cyclopropyl-1H-pyrazol-4-yl)-2-methyl-5-(pyrazin-2-yloxy)-3,4-dihydroquinolin-1(2H)-yl)ethanone]",0.1 to 1 µM,< 0.05 µM,< 0.5 µM,
"CC(=O)N1c2ccc(-c3cnn(C4CC4)c3)c(Oc3ccccn3)c2CC[C@@H]1C [I-89, (S)-1-(6-(1-cyclopropyl-1H-pyrazol-4-yl)-2-methyl-5-(pyridin-2-yloxy)-3,4-dihydroquinolin-1(2H)-yl)ethanone]",0.1 to 1 µM,0.05 to 0.5 µM,< 0.5 µM,
"CC(=O)N1c2ccc(-c3cnn(C4CC4)c3)c(Oc3ccc(C#N)nn3)c2CC[C@@H]1C [I-91, (S)-6-(1-acetyl-6-(1-cyclopropyl-1H-pyrazol-4-yl)-2-methyl-1,2,3,4-tetrahydroquinolin-5-yloxy)pyridazine-3-carbonitrile]",0.1 to 1 µM,0.05 to 0.5 µM,< 0.5 µM,
"CC(=O)N1c2ccc(-c3cnn(C4CC4)c3)c(Oc3ncc(C)cn3)c2CC[C@@H]1C [I-92, (S)-1-(6-(1-cyclopropyl-1H-pyrazol-4-yl)-2-methyl-5-(5-methylpyrimidin-2-yloxy)-3,4-dihydroquinolin-1 (2H)-yl)ethanone]",0.1 to 1 µM,< 0.05 µM,< 0.5 µM,
"CC(=O)N1c2ccc(-c3cnn(C4CC4)c3)c(Oc3ccnc(C(F)(F)F)n3)c2CC[C@@H]1C [I-93, (S)-1-(6-(1-cyclopropyl-1H-pyrazol-4-yl)-2-methyl-5-(2-(trifluoromethyl)pyrimidin-4-yloxy)-3,4-dihydroquinolin-1(2H)-yl)ethanone]",0.1 to 1 µM,0.05 to 0.5 µM,< 0.5 µM,
"C[C@H]1CCc2c(ccc(-c3cnn(C4CCNCC4)c3)c2OC2CCC2)N1C(=O)C1CC1 [I-99, (2S)-5-cyclobutoxy-1-cyclopropanecarbonyl-2-methyl-6-[1-(piperidin-4-yl)-1H-pyrazol-4-yl]-1,2,3,4-tetrahydroquinoline]",0.1 to 1 µM,< 0.05 µM,< 0.5 µM,
"CCCOc1c(-c2cnn(C3CCNCC3)c2)ccc2c1CC[C@H](C)N2C(=O)C1CC1 [I-100, (S)-cyclopropyl(2-methyl-6-(1-(piperidin-4-yl)-1H-pyrazol-4-yl)-5-propoxy-3,4-dihydroquinolin-1(2H)-yl)methanone]",0.1 to 1 µM,< 0.05 µM,< 0.5 µM,
"C[C@H]1CCc2c(ccc(-c3cnn(C4CNC4)c3)c2OC2CCC2)N1C(=O)C1CC1 [I-101, (S)-(6-(1-(azetidin-3-yl)-1H-pyrazol-4-yl)-5-cyclobutoxy-2-methyl-3,4-dihydroquinolin-1(2H)-yl)(cyclopropyl)methanone]",0.1 to 1 µM,< 0.05 µM,< 0.5 µM,
"CCCOc1c(-c2cnn(C3CNC3)c2)ccc2c1CC[C@H](C)N2C(=O)C1CC1 [I-102, (S)-(6-(1-(azetidin-3-yl)-1H-pyrazol-4-yl)-2-methyl-5-propoxy-3,4-dihydroquinolin-1(2H)-yl)(cyclopropyl)methanone]",0.1 to 1 µM,< 0.05 µM,< 0.5 µM,
"CCCOc1c(-c2cnn(C3CCNCC3)c2)ccc2c1CC[C@H](C)N2C(C)=O [I-104, (S)-1-(2-methyl-6-(1-(piperidin-4-yl)-1H-pyrazol-4-yl)-5-propoxy-3,4-dihydroquinolin-1 (2H)-yl)ethanone]",< 0.1 µM,< 0.05 µM,< 0.5 µM,
"CCCOc1c(-c2cnn(C3CCNCC3)c2)ccc2c1CC[C@H](C)N2C(=O)OC [I-107, (S)-methyl 2-methyl-6-(1-(piperidin-4-yl)-1H-pyrazol-4-yl)-5-propoxy-3,4-dihydroquinoline-1(2H)-carboxylate]",0.1 to 1 µM,0.05 to 0.5 µM,,< 0.5 µM
"COC(=O)N1c2ccc(-c3cnn(C4CCNC4)c3)c(OC3CCC3)c2CC[C@@H]1C (stereo partly drawn) [I-108, (2S)-methyl 5-cyclobutoxy-2-methyl-6-(1-(pyrrolidin-3-yl)-1H-pyrazol-4-yl)-3,4-dihydroquinoline-1(2H)-carboxylate]",0.1 to 1 µM,< 0.05 µM,< 0.5 µM,
"CC(=O)N1c2ccc(-c3cnn(C4CC4)c3)c(OC3CC3)c2CC[C@@H]1C [I-113, (S)-1-(5-cyclopropoxy-6-(1-cyclopropyl-1H-pyrazol-4-yl)-2-methyl-3,4-dihydroquinolin-1(2H)-yl)ethanone]",0.1 to 1 µM,0.05 to 0.5 µM,< 0.5 µM,
"CCCOc1c(-c2ccc(S(C)(=O)=O)cn2)ccc2c1CC[C@H](C)N2C(C)=O [I-114, (S)-1-(2-methyl-6-(5-(methylsulfonyl)pyridin-2-yl)-5-propoxy-3,4-dihydroquinolin-1(2H)-yl)ethanone]",1 to 10 µM,0.05 to 0.5 µM,> 1 µM,
"CCCOc1c(-c2ccc(NS(C)(=O)=O)cn2)ccc2c1CC[C@H](C)N2C(C)=O [I-115, (S)—N-(6-(1-acetyl-2-methyl-5-propoxy-1,2,3,4-tetrahydroquinolin-6-yl)pyridin-3-yl)methanesulfonamide]",1 to 10 µM,0.05 to 0.5 µM,> 1 µM,
"CC(=O)N1c2ccc(-c3ccc(S(C)(=O)=O)cn3)c(OCC(=O)N(C)C)c2CC[C@@H]1C [I-116, (S)-2-(1-acetyl-2-methyl-6-(5-(methylsulfonyl)pyridin-2-yl)-1,2,3,4-tetrahydroquinolin-5-yloxy)-N,N-dimethylacetamide]",≥ 10 µM,0.05 to 0.5 µM,> 1 µM,
"CCCOc1c(-c2nc3ccccc3o2)ccc2c1CC[C@H](C)N2C(C)=O [I-117, (S)-1-(6-(benzo[d]oxazol-2-yl)-2-methyl-5-propoxy-3,4-dihydroquinolin-1(2H)-yl)ethanone]",1 to 10 µM,0.05 to 0.5 µM,> 1 µM,
"CCCOc1c(-c2cc3ccccn3n2)ccc2c1CC[C@H](C)N2C(C)=O [I-118, (S)-1-(2-methyl-5-propoxy-6-(pyrazolo[1,5-a]pyridin-2-yl)-3,4-dihydroquinolin-1(2H)-yl)ethanone]",1 to 10 µM,≥ 0.5 µM,> 1 µM,
"CCCOc1c(-c2cn3ccccc3n2)ccc2c1CC[C@H](C)N2C(C)=O [I-119, (S)-1-(6-(imidazo[1,2-a]pyridin-2-yl)-2-methyl-5-propoxy-3,4-dihydroquinolin-1(2H)-yl)ethanone]",1 to 10 µM,0.05 to 0.5 µM,0.5 to 1 µM,
